According to the supplement of paper PMC10307832:

Legend:
Assay in all cases: relative viability (nuclei count vs DMSO), 5 days (fraction); higher = more cells survive
Doxorubicin = compound: COc1cccc2c1C(=O)c1c(O)c3c(c(O)c1C2=O)C[C@@](O)(C(=O)CO)C[C@@H]3O[C@H]1C[C@H](N)[C@H](O)[C@H](C)O1 [Doxorubicin]
Method in brief: (§1)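 Vehicle-anchored 1536-well plates of lung cancer cell lines, held overnight at 37 °C, were pinned with five library-drug doses (not always all listed) spaced by √10. No medium change followed over the next 5 days, after which the cells were fixed, permeabilised and Hoechst-stained together and imaged at 4×. Nuclei were counted with MetaXpress, and viability is treated-well nuclei over vehicle-well nuclei, taken as a median across plates. Plates passed with control CV below 25% and at least one doubling.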

BAY61-3606 = compound: COC1=C(C=C(C=C1)C2=CC3=NC=CN3C(=N2)NC4=C(C=CC=N4)C(=O)N)OC [BAY61-3606]
Method in brief: as §1

Doxorubicin + Pemetrexed = compound: COc1cccc2c1C(=O)c1c(O)c3c(c(O)c1C2=O)C[C@@](O)(C(=O)CO)C[C@@H]3O[C@H]1C[C@H](N)[C@H](O)[C@H](C)O1 [Doxorubicin] + Nc1nc2[nH]cc(CCc3ccc(C(=O)N[C@@H](CCC(=O)O)C(=O)O)cc3)c2c(=O)[nH]1 [Pemetrexed] (partner 0.2 µM)
Method in brief: (§2)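 A single step with final 0.05% Triton X-100, 1% formaldehyde and 1 ug/ml Hoechst fixed the cells and stained nuclei 5 days after treatment. Lung cancer cell lines in 1536-well plates had been treated by pin tool the day after seeding with one drug alone or a fixed anchor-drug dose plus five library-drug doses (not always all listed) in √10 steps, and nuclei were counted on 4× images. Relative viability is the ratio of nuclei in treated wells to nuclei in vehicle wells, taken as the median of duplicate plates.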

BAY61-3606 + OSI-027 = compound: COC1=C(C=C(C=C1)C2=CC3=NC=CN3C(=N2)NC4=C(C=CC=N4)C(=O)N)OC [BAY61-3606] + COc1cccc2cc(-c3nc([C@H]4CC[C@H](C(=O)O)CC4)n4ncnc(N)c34)[nH]c12 [OSI-027] (partner 0.5 µM)
Method in brief: as §2

| Cell Line | relative viability (Doxorubicin; 0.001 µM) | relative viability (Doxorubicin; 0.003162 µM) | relative viability (Doxorubicin; 0.01 µM) | relative viability (Doxorubicin; 0.03162 µM) | relative viability (Doxorubicin; 0.1 µM) | relative viability (BAY61-3606; 0.02 µM) | relative viability (BAY61-3606; 0.06325 µM) | relative viability (BAY61-3606; 0.2 µM) | relative viability (BAY61-3606; 0.6325 µM) | relative viability (BAY61-3606; 2 µM) | relative viability (Doxorubicin + Pemetrexed; first compound 0.001 µM) | relative viability (Doxorubicin + Pemetrexed; first compound 0.003162 µM) | relative viability (Doxorubicin + Pemetrexed; first compound 0.01 µM) | relative viability (Doxorubicin + Pemetrexed; first compound 0.03162 µM) | relative viability (Doxorubicin + Pemetrexed; first compound 0.1 µM) | relative viability (BAY61-3606 + OSI-027; first compound 0.02 µM) | relative viability (BAY61-3606 + OSI-027; first compound 0.2 µM) | relative viability (BAY61-3606 + OSI-027; first compound 0.6325 µM) | relative viability (BAY61-3606 + OSI-027; first compound 2 µM) | relative viability (BAY61-3606 + OSI-027; first compound 0.06325 µM) |
| --- | --- | --- | --- | --- | --- | --- | --- | --- | --- | --- | --- | --- | --- | --- | --- | --- | --- | --- | --- | --- |
| 201T | 0.867 | 0.985 | 0.987 | 0.978 | 0.942 | 0.996 | 0.959 | 1 | 1.01 | 0.95 | 0.344 | 0.325 | 0.352 | 0.338 | 0.351 | 0.759 | 0.703 | 0.661 | 0.512 | – |
| A549 | 1 | 0.991 | 0.869 | 0.395 | 0.503 | 1.01 | 1.07 | 0.959 | 1.05 | 0.857 | – | – | – | – | – | – | – | – | – | – |
| A-427 | 0.969 | 1.03 | 0.936 | 0.81 | 0.757 | 1.08 | 1.01 | 0.963 | 1.03 | 0.892 | 1.08 | 1.06 | 0.929 | 0.746 | 0.429 | 0.538 | 0.479 | 0.542 | 0.476 | 0.44 |
| ABC-1 | 0.943 | 1.01 | 0.811 | 0.414 | 0.307 | 1.04 | 0.942 | 0.986 | 1.03 | 0.854 | – | – | – | – | – | 0.51 | 0.521 | 0.647 | 0.452 | 0.545 |
| BEN | 1.19 | 1.03 | 0.985 | 0.683 | 0.85 | 1.05 | 0.891 | 1.1 | 1.07 | 1.05 | 0.899 | 0.78 | 0.926 | 0.631 | 0.701 | 0.336 | 0.316 | 0.285 | 0.276 | 0.316 |
| CAL-12T | 0.973 | 1.05 | 0.926 | 0.541 | 0.349 | 1.02 | 1.07 | 0.938 | 0.99 | 0.628 | 1.1 | 1.22 | 1.03 | 0.38 | 0.248 | 0.674 | 0.616 | 0.605 | 0.269 | 0.593 |
| COR-L23 | 0.998 | 1.05 | 0.932 | 0.718 | 0.235 | 1.05 | 1.09 | 1.06 | 1 | 0.909 | 0.202 | 0.212 | 0.203 | 0.2 | 0.186 | 0.764 | 0.712 | 0.778 | 0.496 | 0.806 |
| COR-L 105 | 0.951 | 0.853 | 0.827 | 0.706 | 0.503 | 0.932 | 0.892 | 0.951 | 0.852 | 0.568 | 0.87 | 1.2 | 1.05 | 0.808 | 0.618 | 0.843 | 0.726 | 0.704 | 0.468 | 0.645 |
| Calu-6 | 0.966 | 1.02 | 0.929 | 0.566 | 0.431 | 1.07 | 1.05 | 0.979 | 0.963 | 0.807 | – | – | – | – | – | – | – | – | – | – |
| ChaGo-K-1 | 1.06 | 1.09 | 0.923 | 0.892 | 0.563 | 0.97 | 0.942 | 0.918 | 0.949 | 0.945 | 0.264 | 0.254 | 0.231 | 0.259 | 0.273 | 0.537 | 0.519 | 0.495 | 0.639 | 0.533 |
| EBC-1 | 1 | 1.09 | 1.01 | 0.702 | 0.534 | 1.04 | 0.999 | 0.953 | 1.04 | 0.888 | – | – | – | – | – | – | – | – | – | – |
| EKVX | 1.01 | 1.03 | 0.963 | 0.951 | 0.902 | 1.04 | 1 | 0.884 | 1.07 | 0.99 | 0.336 | 0.404 | 0.426 | 0.45 | 0.257 | 0.862 | 0.734 | 0.554 | 0.631 | 0.696 |
| EMC-BAC-2 | 1.34 | 0.844 | 0.748 | 0.469 | 0.326 | 1.04 | 1 | 0.921 | 0.988 | 0.942 | 0.491 | 0.48 | 0.444 | 0.409 | 0.369 | 0.391 | 0.356 | 0.363 | 0.318 | 0.391 |
| EPLC-272H | 0.84 | 0.949 | 0.932 | 0.792 | 0.964 | 1.02 | 1.05 | 0.894 | 0.873 | 0.729 | 0.365 | 0.372 | 0.377 | 0.322 | 0.298 | 0.269 | 0.267 | 0.329 | 0.333 | 0.268 |
| H3255 | 0.892 | 0.993 | 0.931 | 0.849 | 0.727 | 0.976 | 0.905 | 0.928 | 1.16 | 0.898 | 0.526 | 0.558 | 0.559 | 0.535 | 0.523 | 0.529 | 0.642 | 0.736 | 0.546 | 0.549 |
| HARA | 0.983 | 1.12 | 1.07 | 0.945 | 0.955 | 1.03 | 0.927 | 0.945 | 0.953 | 0.866 | 0.22 | 0.257 | 0.338 | 0.259 | 0.268 | 0.554 | 0.513 | 0.536 | 0.311 | 0.463 |
| HCC-15 | 0.807 | 1.08 | 0.975 | 0.811 | 0.654 | 1 | 0.971 | 0.994 | 0.988 | 0.896 | 0.239 | 0.215 | 0.228 | 0.205 | 0.205 | 0.704 | 0.721 | 0.693 | 0.553 | 0.613 |
